Legend:
Format in all cases: in vivo
[1] = tested on: Alternaria solani; assay: Test F: tomato early blight, preventive spray on tomato seedlings; details: 50 ppm, 100 = 100% disease control, 0 = no control; for pest or weed control at 50 ppm: Alternaria solani, read-out: Test F disease control rating (tomato early blight)
Source text: (§1) General protocol for preparing test suspensions for Tests A-F: the test compounds were first dissolved in acetone in an amount equal to 3% of the final volume and then suspended at the desired concentration (in ppm) in acetone and purified water (50/50 mix by volume) containing 250 ppm of the surfactant PEG400 (polyhydric alcohol esters). The resulting test suspensions were then used in Tests A-F. The test suspension was sprayed to the point of run-off on tomato seedlings. The following day the seedlings were inoculated with a spore suspension of Alternaria solani (the causal agent of tomato early blight) and incubated in a saturated atmosphere at 27° C. for 48 h, and then moved to a growth chamber at 20° C. for 3 days, after which time visual disease ratings were made. A rating of 100 indicates 100% disease control and a rating of 0 indicates no disease control (relative to the controls). A dash (-) indicates the compound was not tested.

[2] = tested on: Blumeria graminis f. sp. tritici; assay: Test C: wheat powdery mildew, preventive spray on wheat seedlings; details: 50 ppm, rated after 8 days, 100 = 100% disease control, 0 = no control; for pest or weed control at 50 ppm: Blumeria graminis, 192 h, read-out: Test C disease control rating (wheat powdery mildew)
Source text: as §1, with “on wheat” for “on tomato”, “spore dust” for “spore suspension”, “of Blumeria graminis f. sp. tritici, (also known as Erysiphe graminis f. sp. tritici, the” for “of Alternaria solani (the”, “of wheat powdery mildew)” for “of tomato early blight)”, “in” for “in a saturated atmosphere at 27° C. for 48 h, and then moved to”, “for 8” for “for 3”

[3] = tested on: Puccinia recondita f. sp. tritici; assay: Test B: wheat leaf rust, preventive spray on wheat seedlings; details: 50 ppm, 100 = 100% disease control, 0 = no control relative to controls; for pest or weed control at 50 ppm: read-out: Test B disease control rating (wheat leaf rust)
Source text: General protocol for preparing test suspensions for Tests A-F: the test compounds were first dissolved in acetone in an amount equal to 3% of the final volume and then suspended at the desired concentration (in ppm) in acetone and purified water (50/50 mix by volume) containing 250 ppm of the surfactant PEG400 (polyhydric alcohol esters). The resulting test suspensions were then used in Tests A-F. The test solution was sprayed to the point of run-off on wheat seedlings. The following day the seedlings were inoculated with a spore suspension of Puccinia recondita f. sp. tritici (the causal agent of wheat leaf rust) and incubated in a saturated atmosphere at 20° C. for 24 h, and then moved to a growth chamber at 20° C. for 7 days, after which time disease ratings were made. A rating of 100 indicates 100% disease control and a rating of 0 indicates no disease control (relative to the controls). A dash (-) indicates the compound was not tested.

[4] = tested on: Phakopsora pachyrhizi; assay: Test D: Asian soybean rust, preventive spray on soybean seedlings; details: 50 ppm, 100 = 100% disease control, 0 = no control; for pest or weed control at 50 ppm: Phakopsora pachyrhizi, read-out: Test D disease control rating (Asian soybean rust)
Source text: General protocol for preparing test suspensions for Tests A-F: the test compounds were first dissolved in acetone in an amount equal to 3% of the final volume and then suspended at the desired concentration (in ppm) in acetone and purified water (50/50 mix by volume) containing 250 ppm of the surfactant PEG400 (polyhydric alcohol esters). The resulting test suspensions were then used in Tests A-F.
The test solution was sprayed to the point of run-off on soybean seedlings. The following day the seedlings were inoculated with a spore suspension of Phakopsora pachyrhizi (the causal agent of Asian soybean rust) and incubated in a saturated atmosphere at 22° C. for 24 h and then moved to a growth chamber at 22° C. for 8 days, after which time visual disease ratings were made.
A rating of 100 indicates 100% disease control and a rating of 0 indicates no disease control (relative to the controls). A dash (-) indicates the compound was not tested.

[5] = tested on: Septoria tritici; assay: Test A: wheat leaf blotch, preventive spray on wheat seedlings; details: 50 ppm, 100 = 100% disease control, 0 = no control relative to controls; for pest or weed control at 50 ppm: Zymoseptoria tritici, read-out: Test A disease control rating (wheat leaf blotch)
Source text: General protocol for preparing test suspensions for Tests A-F: the test compounds were first dissolved in acetone in an amount equal to 3% of the final volume and then suspended at the desired concentration (in ppm) in acetone and purified water (50/50 mix by volume) containing 250 ppm of the surfactant PEG400 (polyhydric alcohol esters). The resulting test suspensions were then used in Tests A-F. The test solution was sprayed to the point of run-off on wheat seedlings. The following day the seedlings were inoculated with a spore suspension of Septoria tritici (the causal agent of wheat leaf blotch) and incubated in a saturated atmosphere at 24° C. for 48 h, and then moved to a growth chamber at 20° C. for 17 days, after which time disease ratings were made. A rating of 100 indicates 100% disease control and a rating of 0 indicates no disease control (relative to the controls). A dash (-) indicates the compound was not tested.

[6] = tested on: Botrytis cinerea; assay: Test E: tomato Botrytis, preventive spray on tomato seedlings; details: 50 ppm, 100 = 100% disease control, 0 = no control; for pest or weed control at 50 ppm: Botrytis cinerea, read-out: Test E disease control rating (tomato Botrytis)
Source text: as §1, with “Botrytis cinerea” for “Alternaria solani”, “Botrytis)” for “early blight)”, “20°” for “27°”, “24°” for “20°”

Structure (SMILES) | pest or weed control at 50 ppm [1] [%] | pest or weed control at 50 ppm [2] [%] | pest or weed control at 50 ppm [3] [%] | pest or weed control at 50 ppm [4] [%] | pest or weed control at 50 ppm [5] [%] | pest or weed control at 50 ppm [6] [%] | Test F disease control rating (tomato early blight) [1] [%] | Test C disease control rating (wheat powdery mildew) [2] [%] | Test B disease control rating (wheat leaf rust) [3] [%] | Test D disease control rating (Asian soybean rust) [4] [%] | Test A disease control rating (wheat leaf blotch) [5] [%] | Test E disease control rating (tomato Botrytis) [6] [%]
Cc1nn(C)c(Nc2c(F)cccc2[N+](=O)[O-])c1-c1ccc(C#N)cc1Cl [Compound 113, 3-chloro-4-[5-[(2-fluoro-6-nitrophenyl)amino]-1,3-dimethyl-1H-pyrazol-4-yl]benzonitrile] | 99 | 97 | 99 | 13 | 100 | 99 | – | – | – | – | – | –
Cc1nn(C)c(Nc2c(Cl)cc(Cl)cc2[N+](=O)[O-])c1-c1ccc(Cl)cc1Cl [Compound 146] | – | – | – | – | – | – | 40 | 0 | 98 | 0 | 97 | 0
COc1cc(F)c(Nc2c(-c3ccc(F)cc3Br)c(C)nn2C)c([N+](=O)[O-])c1 [Compound 165] | – | – | – | – | – | – | 100 | 98 | 100 | 94 | 99 | 100
Cc1nn(C)c(Nc2c(Cl)cc(F)cc2[N+](=O)[O-])c1-c1ccc(F)cc1F [Compound 67] | – | – | – | – | – | – | 33 | 89 | 100 | 69 | 100 | 98
Cc1nn(C)c(Nc2c(F)cc(Br)cc2[N+](=O)[O-])c1-c1ccc(Cl)cc1Cl [Compound 132] | – | – | – | – | – | – | 96 | 47 | 98 | 0 | 100 | 99
COc1cc(F)c(-c2c(C)nn(C)c2Nc2c(F)cc(Cl)cc2[N+](=O)[O-])c(F)c1 [Compound 86] | – | – | – | – | – | – | 99 | 98 | 100 | 77 | 100 | 96
Cc1nn(C)c(Nc2ccc(OC(C)C)cc2[N+](=O)[O-])c1-c1ccc(F)cc1Cl [Compound 104] | – | – | – | – | – | – | 0 | 72 | 0 | 0 | 60 | 0
CCc1nn(C)c(Nc2ccc(C)cc2[N+](=O)[O-])c1-c1ccc(F)cc1Cl [Compound 174] | – | – | – | – | – | – | 39 | 92 | 95 | 0 | 100 | 99
Cc1nn(C)c(Nc2c(Cl)cc(F)cc2[N+](=O)[O-])c1-c1ccc(Cl)cc1Cl [Compound 10] | – | – | – | – | – | – | 9 | 48 | 99 | 0 | 100 | 68
Cc1nn(C)c(Nc2c(F)cccc2[N+](=O)[O-])c1-c1c(F)cc(F)cc1Br [Compound 1, 4-(2-bromo-4,6-difluorophenyl)-N-(2-fluoro-6-nitrophenyl)-1,3-dimethyl-1H-pyrazol-5-amine] | 99 | 100 | 100 | 84 | 100 | 100 | – | – | – | – | – | –
CCc1nn(C)c(Nc2c(F)cc(C)cc2[N+](=O)[O-])c1-c1ccc(F)cc1Cl [Compound 137] | – | – | – | – | – | – | 99 | 100 | 100 | 91 | 100 | 99
Cc1cccc([N+](=O)[O-])c1Nc1c(-c2ccc(Cl)cc2Cl)c(C)nn1C [Compound 144] | – | – | – | – | – | – | 0 | 35 | 68 | 69 | 100 | 0

Source: patent US12398107B2, “Fungicidal nitroanilino substituted pyrazoles” (FMC Corporation, priority 2018, dated 2025)
